In this assay the test system is Pink1^-/- CD8^+ T cells. Nature of the assay: In vitro stimulation of Pink1-/- T cells in presence of UA. Format: cell-based, Pink1^-/- mice. Here is the method:
(FIG. 4A) Scheme of CD3+ T-cell activation and analysis for various timepoints in order to investigate mitophagy induction in vitro. (FIG. 4B) Analysis of mitochondrial membrane potential within CD8+ T cells, with TMRM^lo representing cells with low mitochondrial membrane potential. Analysis was performed six hours after stimulation with aCD/aCD28 stimulation beads at the presence of the indicated treatments. N=4 per group, *p < 0.05 by Mann Whitney U test. One of two independent experiments are shown. (FIG. 4C) Representative flow histogram and quantification of lysosome formation in CD8+ cells six hours after in vitro stimulation. MFI shown relative to DMSO controls, n=4. Data are normalised mean ± SD, statistical analysis by two-sided t-test. One out of two independent experiments are shown. (FIG. 4D) Mitotracker Red staining of in vitro stimulated CD8+ cells after 24 hours of Urolithin A (UA25 n=6; UA50 n=6) or vehicle control treatment (DMSO: n=4). A representative flow histogram depicting identification of Mitotracker^hi cells is shown. Data are mean ± SD, statistical analysis was performed by two-sided t-test (*p < 0.05; ***p <0.001; ****p < 0.0001). Experiment was repeated twice. (FIG. 4E) Subset-specific identification of Mitotracker red accumulation after 24 hours of in vitro stimulation either with vehicle control (DMSO) or 50 µM Urolithin A (n=5). Subsets were identified was depicted in the FIGS. 7-9. Data are mean ± SD, statistical analysis by two-sided t-test (* p<0.05, *** p<0.001 and **** p<0.0001). (FIG. 4F) qPCR analysis of various autophagy/mitophagy associated genes of in vitro activated CD3+ cells, 24 h after activation (n=3). Data are ± SEM, statistical analysis was performed by two-sided t-test (*p < 0.05,**p < 0.01). Overall p value is given for the comparison over the entire panel of genes after two-way ANOVA test. (FIG. 4G) Western blot of Parkin protein expression in UA or DMSO (n=3) treated cells after 24 h. Cells were stimulated at the presence of plate-bound aCD3/aCD28 antibodies. […] (FIG. 4H) CD8+ cells from Pink1^-/- mice display deficient mitophagy upon UA treatment in vitro: Lysosome formation in CD8+ of Pink1^-/- mice as assessed by Lysotracker staining 6h post stimulation at the presence of UA or DMSO (n=4). Data are mean ± SD, one out of two independent experiments are shown. (FIG. 4I) CD8+ cells from Pink1^-/- mice display deficient mitophagy upon UA treatment in vitro: Mitotracker red staining of Pink1^-/- CD8+ stimulated in vitro for 48 h, either in the presence of UA or DMSO (n=4). Percentage of Mitotracker^hi CD8+ cells are shown. Data are mean ± SD and acquired via flow cytometry. One out of two independent experiments are shown. Statistical analysis was performed by two-sided t-test (n.s., not significant). (FIG. 4J) CD8+ cells from Pink^-/- mice fail to reprogram to TSCM after UA exposure in vitro: TSCM formation in Pink1^-/- CD8+ cells 48 h after stimulation in the presence of UA (25 µM and 50 µM) and DMSO (n=4, respectively). Data are mean ± SD, statistical analysis was performed by two-sided t-test (***p <0.001). Data depicts results of three independent experiments. (FIG. 4K) Expression of TCF1 in naïve-like CD62L^+CD44^-CD8^+ Pink1^-/- cells. Data are ± SD, depicted as MFI (***p <0.001 by two-sided t-test). (FIG. 4L) Growth curve of Pink1^-/- mice s.c. injected with APTK-organoids, fed UA-rich or control diet as depicted in FIG. 1J. n=4 per group. Data are mean ± SD. (FIG. 4M) Flow cytometry analysis of TIL in Pink ^-^/- mice s.c. transplanted with APTK tumors, fed either UA or control diet. Quantification of TCF1^hi cells among CD8. (FIG. 4N) Quantification of PD1^hi cells among CD8. (FIG. 4O) Quantification of and Tim3^hi cells among CD8. (FIG. 4P) Ex vivo cytokine release assay. TIL of Pink1^-/- from FIG. 4L were stimulated ex vivo with PMA and lonomycin, in the presence of Brefeldin A for three hours. Data depicts percentage of TNFα^hi cells within the CD8+ compartment. All data are mean ± SD (n=4). […]

As to `O=c1oc2cc(O)ccc2c2ccc(O)cc12` [Urolithin A], the “TCF-1 in CD44-CD62L+CD8+ T cells” value is on record as “expressed less TCF-1”. Besides, where the note is “6 h, upon UA exposure”, the “cytoplasmic expression of Pgam5” value is “lack of cytoplasmic expression of Pgam5”. The UA-induced lysosome formation result (6h post stimulation) is on record as “prevented”. Besides, under “48 h”, the PGC-1α expression result is listed as “failed to enhance” and the “UA-induced decrease in mitochondrial content” value was “prevented”. For the same molecule, the TSCM phenotype result (48 h, UA 25 µM and 50 µM) is given as “failed to exhibit a TSCM phenotype”.

For the origin of these results see US20230277669A1, “USES OF UROLITHINS” (Amazentis SA, priority 2022, published 2023).
